Experiment [1] concerns U2OS cells. Put plainly: Cell proliferation assay (CellTiter 96 AQueous). Format: cell-based. Conditions: 10 μM, 5 days; same extent as shRNA-mediated NUAK1 knockdown. On the procedure: Cell proliferation assays were carried out colorimetrically in 96-well plates using the CellTiter 96® AQueous Non-Radioactive Cell Proliferation Assay kit (Promega) following the manufacturer's protocol. Initially, 2000 cells per well were seeded for U2OS cells and 3000 cells per well were seeded for MEFs. The proliferation assays were carried out over 5 days in the presence or absence of 10 μM HTH-01-015 or WZ4003.

The target in experiment [2] is T1, NUAK2 (Homo sapiens, UniProt Q9H093).
T1 construct: made in house; host or cells: HEK-293 cells, transient transfection of pEBG2T construct
T1 sequence (Q9H093 1-628): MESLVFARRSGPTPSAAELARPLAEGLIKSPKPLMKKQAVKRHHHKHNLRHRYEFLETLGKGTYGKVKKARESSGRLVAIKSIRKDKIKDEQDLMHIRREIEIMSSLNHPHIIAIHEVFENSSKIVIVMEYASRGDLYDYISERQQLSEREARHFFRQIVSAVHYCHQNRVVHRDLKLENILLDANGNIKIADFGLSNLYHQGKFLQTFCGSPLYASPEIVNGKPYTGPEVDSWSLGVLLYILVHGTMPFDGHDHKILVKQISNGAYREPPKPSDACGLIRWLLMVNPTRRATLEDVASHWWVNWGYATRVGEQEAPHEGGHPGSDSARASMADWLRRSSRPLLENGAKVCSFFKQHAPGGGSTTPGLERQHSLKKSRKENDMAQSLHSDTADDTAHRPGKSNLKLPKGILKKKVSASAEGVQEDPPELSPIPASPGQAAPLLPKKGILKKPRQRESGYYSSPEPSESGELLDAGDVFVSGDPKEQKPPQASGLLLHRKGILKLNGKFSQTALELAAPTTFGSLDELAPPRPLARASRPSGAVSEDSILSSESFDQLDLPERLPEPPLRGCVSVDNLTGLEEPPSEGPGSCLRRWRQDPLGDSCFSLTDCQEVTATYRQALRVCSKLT
Put plainly: GST–NUAK2 Sakamototide peptide kinase assay. It counts as biochemical. As to conditions: for IC50: 200 μM Sakamototide, 100 μM [γ-32P]ATP; for Inhibition of NUAK2 (in words): results not shown. The protocol: Active GST–NUAK1, GST–NUAK1[A195T] and GST–NUAK2 enzymes were purified using glutathione–Sepharose from HEK-293 cell lysates 36–48 h following the transient transfection of pEBG2T mammalian constructs expressing N-terminal GST-tagged NUAK1, NUAK1[A195T] or NUAK2. For peptide kinase assays, 96-well plates were used, and each reaction was performed in triplicate. Each reaction was set up in a total volume of 50 μl containing 100 ng of NUAK1 (wild-type or A195T mutant) or NUAK2 in 50 mM Tris/HCl (pH 7.5), 0.1 mM EGTA, 10 mM magnesium acetate, 200 μM Sakamototide, 0.1 mM [γ-^32P]ATP (450–500 c.p.m./pmol) and the indicated concentrations of inhibitors dissolved in DMSO. After incubation for 30 min at 30°C, reactions were terminated by adding 25 mM (final) EDTA to chelate the magnesium. Then, 40 μl of the reaction mix was spotted on to P81 paper and immersed in 50 mM orthophosphoric acid. Samples were washed three times in 50 mM orthophosphoric acid followed by a single acetone rinse and air drying. The incorporation of [γ-^32P]ATP into Sakamototide was quantified by Cerenkov counting. The values were expressed as a percentage of the DMSO control. IC50 curves were developed and IC50 values were calculated using GraphPad Prism software.

For experiment [3], the system named is U2OS cells. Nature of the experiment: 3D Matrigel Transwell invasion assay. It counts as cell-based. As to conditions: 10 μM, 16 h, 10% FBS chemoattractant. On the procedure:
The ability of U2OS cells to invade in the presence or absence of 10 μM HTH-01-015 or WZ4003 was tested in a growth-factor-reduced Matrigel™ invasion chamber (BD Biosciences, catalogue number 354483) as described previously. Cells were serum-deprived for 2 h, detached using cell-dissociation buffer (Gibco), and 2.5×10^5 cells suspended in DMEM containing 1% (w/v) BSA were added to the upper chambers in triplicate and chemoattractant [DMEM containing 10% (v/v) FBS] was added to the lower wells. The chambers were kept at 37°C in 5% CO2 for 16 h in the presence or absence of 10 μM HTH-01-015 or WZ4003 both in the upper and lower wells. Non-invaded cells were removed from the upper face of the filters by scraping, and cells that had migrated to the lower face of the filters were fixed and stained with Reastain Quick-Diff kit (Reagena) and images (×10 magnification) were captured. For cell invasion assays, statistical significance was assessed using GraphPad Prism 5.0.

The subject of experiment [4] is MYPT1 phosphorylation. Nature of the experiment: MYPT1 phosphorylation on detachment, U2OS. It counts as cell-based. As to conditions: 10 μM, 16 h. The protocol:
Figure 7 NUAK1 inhibition suppresses cell proliferation (A) U2OS cells were incubated with or without 10 μM WZ4003 or 10 μM HTH-01-015 and a cell proliferation assay was carried out over 5 days in triplicate using the CellTiter 96® AQueous Non-Radioactive Cell Proliferation Assay kit (Promega) (as described in the Materials and methods section). U2OS cells in which NUAK1 has been knocked-down using two different shRNA hairpins were used in parallel as controls. The efficiency of the knock down of each shRNA is shown in top panel. SCR, control scrambled shRNA hairpin; shNUAK1 (1), first NUAK1 shRNA hairpin; shNUAK1 (2), second NUAK1 shRNA hairpin. (B) U2OS cells were treated with (+) or without (−) 10 μM WZ4003 or 10 μM HTH-01-015. After 16 h cell media was removed and cells were treated with EDTA-PBS-based cell dissociation buffer supplemented with 10 μM WZ4003, 10 μM HTH-01–015 or DMSO for 20 min. Cell detachment was induced with gentle tapping of the plates followed by gentle centrifugation at 70 g for 3 min. Cells were lysed immediately after removal of the media and immunoblotted for the detection of the indicated antibodies. (C and D) As above, except NUAK1^+/+ and NUAK1^−/− MEFs were used. Similar results were obtained in three separate experiments.

Read-outs that look alike come from different tables or passages of the source. Where only a bound is given, the exact number is not on record here.

With `Cc1nc(Nc2cnn(C3CCNCC3)c2)nc2c1N(C)C(=O)c1cc3ccccc3cc1N2C` [HTH-01-015], the “Proliferation of U2OS cells (in words)” value in experiment [1] is “suppressed proliferation”. In experiment [2] (bound given in text, read-out: IC50 for NUAK2), the IC50 was more than 10000 nM. Also, the “Higher potency for NUAK1 than NUAK2” value in experiment [2] (NUAK1 versus NUAK2) is given as more than 100 fold. Further, the “Invasiveness of U2OS cells (in words)” value in experiment [3] is reported as “markedly inhibited the invasiveness”. For the same compound, in experiment [4], the “Suppression of MYPT1 phosphorylation in U2OS cells (in words)” value is “to the same extent as shRNA-mediated NUAK1 knockdown”.

With `CCC(=O)Nc1cccc(Oc2nc(Nc3ccc(N4CCN(C)CC4)cc3OC)ncc2Cl)c1` [WZ4003], the “Proliferation of U2OS cells (in words)” value in experiment [1] is “suppressed proliferation”. For the same compound, the IC50 in experiment [2] (read-out: IC50 for NUAK2 (wild-type GST–NUAK2)) was 100 nM. Further, the “Invasiveness of U2OS cells (in words)” value in experiment [3] was “markedly inhibited the invasiveness”. Moreover, in experiment [4], the “Suppression of MYPT1 phosphorylation in U2OS cells (in words)” value is “to the same extent as shRNA-mediated NUAK1 knockdown”.

Regarding `CN1C(=O)c2ccccc2N(C)c2nc(Nc3cnn(C4CCNCC4)c3)ncc21` [XMD-17-51], the “Inhibition of NUAK2 (in words)” value in experiment [2] was “Neither compound significantly inhibited”.

For `CN1C(=O)c2cc3ccccc3cc2N(C)c2nc(Nc3cnn(C4CCNCC4)c3)ncc21` [XMD-18-42], in experiment [2], the “Inhibition of NUAK2 (in words)” value is “Neither compound significantly inhibited”.

A word on the IC50: it is the concentration needed to halve the response being measured.
